Test results published in PubChem BioAssay (NCI).
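Five concentrations, 48 hours, 96-well plates. TGI denotes the concentration required for complete inhibition of growth.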

What was measured:
Assay in all cases: NCI-60 cell line screen, 48 h
[1] = system: NCI-H522 lung
[2] = system: IGROV1 ovarian
[3] = system: KM20L2 colon
[4] = system: SNB-78 CNS
[5] = system: LOX IMVI melanoma
[6] = system: NCI-H226 lung
[7] = system: SR leukemia
[8] = system: SK-MEL-5 melanoma
[9] = system: RXF 393 renal
[10] = system: RPMI-8226 leukemia
[11] = system: HOP-18 NSCLC
[12] = system: CCRF-CEM leukemia
[13] = system: MOLT-4 leukemia
[14] = system: EKVX NSCLC
[15] = system: UACC-62 melanoma
[16] = system: ACHN renal
[17] = system: M14 melanoma
[18] = system: NCI-H23 lung
[19] = system: SF-539 CNS
[20] = system: SK-OV-3 ovarian
[21] = system: M19-MEL melanoma
[22] = system: 786-0 renal
[23] = system: HL-60(TB) leukemia
[24] = system: OVCAR-5 ovarian
[25] = system: HOP-92 NSCLC
[26] = system: COLO 205 colon
[27] = system: A549 NSCLC
[28] = system: MALME-3M melanoma
[29] = system: SK-MEL-2 melanoma
[30] = system: KM12 colon
[31] = system: SW-620 colon
[32] = system: HCT-116 colon
[33] = system: U251 CNS
[34] = system: DMS 273 small cell lung
[35] = system: LXFL 529 NSCLC
[36] = system: SF-295 CNS
[37] = system: OVCAR-8 ovarian
[38] = system: NCI-H460 lung
[39] = system: OVCAR-3 ovarian
[40] = system: OVCAR-4 ovarian
[41] = system: K-562 leukemia
[42] = system: HCT-15 colon
[43] = system: DMS 114 small cell lung
[44] = system: CAKI-1 renal
[45] = system: SF-268 CNS
[46] = system: SNB-75 CNS
[47] = system: HT29 colon
[48] = system: SK-MEL-28 melanoma
[49] = system: DLD-1 colon
[50] = system: TK-10 renal
[51] = system: UACC-257 melanoma
[52] = system: SNB-19 CNS
[53] = system: SN12C renal
[54] = system: HCC-2998 colon
[55] = system: HOP-62 NSCLC

Measured: TGI

N/N=C(\CCN1CCCC1)CC(c1ccccc1)c1c(O)c2ccccc2oc1=O (stereo not given)
> 100 µM: all assays above
